Consider two molecules from patent publication US6878731B2, “Imidazole alkaloids from Lepidium meyenii and methods of usage” (Pure World Botanicals, Inc., priority 2002, dated 2005).

For data set [1], the system named is UMUC3 (human bladder carcinoma). Particulars: UMUC3 cell line.
The test system of data set [2] is PACA2 (human pancreatic adenocarcinoma). Particulars: PACA2 cell line.
Data set [3] has as its system A-549 (human lung carcinoma). Conditions: A-549 cell line.
In data set [4] the test system is PC-3 (human prostate adenocarcinoma). Conditions: PC-3 cell line.
The subject of data set [5] is HT-29 (human colon adenocarcinoma). Particulars: HT-29 cell line.
Data set [6] deals with A4982LM (human kidney carcinoma). Particulars: A4982LM cell line.
For data set [7], the system named is FDIGROV (human ovarian carcinoma). Particulars: FDIGROV cell line.
In data set [8] the test system is MDA231 (human breast carcinoma). Conditions: MDA231 cell line.

`Cc1c(C)[n+](Cc2ccccc2)cn1Cc1ccccc1.[Cl-]` [Compound 1, 1,3-bis(phenylmethyl)-4,5-dimethyl-1H-imidazlium chloride]: the “Cytotoxic activity ED50, UMUC3” value in data set [1] is >10 µg/mL. Besides, the “Cytotoxic activity ED50, PACA2” value in data set [2] is >10 µg/mL. For the same molecule, in data set [3], the “Cytotoxic activity ED50, A-549” value was >10 µg/mL and the “Cytotoxic activity in words, A-549” value was “inactive”. In data set [4], the “Cytotoxic activity ED50, PC-3” value was >10 µg/mL and the “Cytotoxic activity in words, PC-3” value is “inactive”. Also, in data set [5], the “Cytotoxic activity ED50, HT-29” value was >10 µg/mL and the “Cytotoxic activity in words, HT-29” value is “inactive”. Besides, in data set [6], the “Cytotoxic activity ED50, A4982LM” value is >10 µg/mL and the “Cytotoxic activity in words, A4982LM” value is “inactive”. In data set [7], the “Cytotoxic activity ED50, FDIGROV” value is 7.39 µg/mL and the “ED50, FDIGROV” value is 7390 µg/mL. Also, in data set [8], the “Cytotoxic activity ED50, MDA231” value is >10 µg/mL.

Regarding `Cc1c(C)[n+](Cc2ccccc2)c(C)n1Cc1ccccc1.[Cl-]` [Compound 2, 1,3-bis(phenylmethyl)-2,4,5-trimethyl-1H-imidazlium chloride], the “Cytotoxic activity ED50, UMUC3” value in data set [1] turned out to be 6.47 µg/mL. Moreover, the “Cytotoxic activity ED50, PACA2” value in data set [2] was determined as 1.38 µg/mL. Moreover, in data set [3], the “Cytotoxic activity ED50, A-549” value is >10 µg/mL and the “Cytotoxic activity in words, A-549” value was “inactive”. In data set [4], the “Cytotoxic activity ED50, PC-3” value is >10 µg/mL and the “Cytotoxic activity in words, PC-3” value is “inactive”. In data set [5], the “Cytotoxic activity ED50, HT-29” value is >10 µg/mL and the “Cytotoxic activity in words, HT-29” value was “inactive”. Besides, in data set [6], the “Cytotoxic activity ED50, A4982LM” value was >10 µg/mL and the “Cytotoxic activity in words, A4982LM” value was “inactive”. For the same molecule, in data set [7], the “Cytotoxic activity ED50, FDIGROV” value came out at 5.26 µg/mL and the “ED50, FDIGROV” value came out at 5260 µg/mL. The “Cytotoxic activity ED50, MDA231” value in data set [8] came to 1.66 µg/mL.
